{
  "source": "patent US4469701A",
  "about": "“Pyrrolid-3-en-2-ones and pharmaceutical methods of use thereof” (Stauffer Chemical Company, priority 1983, dated 1984)",
  "key": {"mice [1]": {"system": "mice", "assay": "Pupil dilation in mice", "format": "in vivo, mouse", "settings": "i.p.", "method": "If the pupil diameter of mice exceeds 1.0 mm (>1) in bright light 30 minutes after dosing, i.p., ganglionic blockage or anti-cholinergic activity is indicated in the absence of adrenergic action. The following are reference compounds and the doses thereof."}, "[2]": {"system": "spontaneously hypertensive rats (SHR)", "assay": "Antihypertensive: blood pressure (tail cuff) in spontaneously hypertensive rats (SHR)", "format": "in vivo, rat", "settings": "Rattus norvegicus; for inhibition in vivo at 100 mg/kg: 6 hr. after a 100 mg/kg oral dose, significance >10, read-out: Antihypertensive: percent decrease in systolic blood pressure in spontaneously hypertensive rats", "method": "Blood pressure was measured indirectly (tail cuff) in unanesthetized, unheated spontaneously hypertensive rats (SHR) before and 2, 4, and 6 hours after p.o. dosing. Reduction in mean pressure by more than 10% (>10) at any two consecutive measurement times after dosing indicates antihypertensive activity."}, "[3]": {"assay": "Overall pharmacological profile", "settings": "in vivo"}, "rats [4]": {"system": "rats", "assay": "Bradycardia: heart rate by EKG in rats", "format": "in vivo, rat", "settings": "Rattus norvegicus, 0.75 h; 45 min. after a 5 mg/kg oral dose in rats; significance >10; read-out: B = Bradycardiac: percent decrease in heart rate", "method": "[…] Decrease in heart rate by more than 10% (>10) is considered a bradycardic effect.\nPercent decrease in heart rate 45 min. after a 5\nmg/kg oral dose in rats."}, "mice [5]": {"system": "mice", "assay": "Antiarrhythmic: chloroform-induced cardiac arrhythmia in mice", "format": "in vivo, mouse", "settings": "15 min. after a 200 mg/kg intraperitoneal dose; significance <2", "method": "^2 A = Antiarrythmic. Less than 2/3 mouse hearts fibrillating 15 min."}, "[6]": {"system": "hypercholesterolemic mice", "assay": "Hypocholesterolemic: serum cholesterol in hypercholesterolemic mice", "format": "in vivo, mouse", "settings": "Mus musculus, hypercholesterolemic mice; for inhibition in vivo at 200 mg/kg: 2 oral doses of 200 mg/kg 20 hr. apart, significance >20, read-out: C = Hypocholesterolemic: percent decrease in serum cholesterol; for ED100: po, reference compounds, read-out: ED-100, hypocholesterolemic", "method": "Mice made hypercholesterolemic by being fed a high cholesterol-cholic acid diet for 7 days were dosed on the sixth and seventh days, p.o. After fasting overnight, reduction in serum cholesterol concentration by more than 15% (>15) from hypercholesterolemic control mice indicates activity.\n^4 C = Hypocholesterolemic. Percent decrease in serum cholesterol in\nhypercholesterolemic mice given 2 oral doses of 200 mg/kg drug candidate"}, "rats [7]": {"system": "rats", "assay": "Antiulcer: stress induced gastric ulcers in rats", "format": "in vivo, rat", "settings": "for inhibition in vivo at 50 mg/kg: Rattus norvegicus, 4 hr. following a 50 mg/kg oral dose in rats, significance >60, read-out: U = Antiulcerative: percent inhibition of stress ulcers", "method": "Fasted rats were dosed, p.o., 30 minutes before immobilization in wire mesh and partial immersion in water for 4 hours. Inhibition of the resulting stress induced gastric ulcers by more than 60% (>60) indicates activity.\n^6 U = Antiulcerative. Percent inhibition of stress ulcers 4 hr.\nfollowing a 50 mg/kg oral dose in rats."}, "rats [8]": {"system": "rats", "assay": "Antiedema: carrageenan paw edema in rats", "format": "in vivo", "settings": "Rattus norvegicus, po, 3 h, read-out: ED-100, antiedema", "method": "Rats are dosed p.o. one hour before intraplantar injection of carrigeenan (0.1 ml, 1% susp.). Inhibition of paw edema by more than 30% (>30) 3 hours after carriegeenan injection indicates acute anti-edema activity."}, "[9]": {"assay": "Central nervous system (CNS) depression/effects", "settings": "in vivo"}, "mice [10]": {"system": "mice", "assay": "Acute toxicity / autonomic effects observation", "settings": "mouse, in vivo", "method": "Mice were dosed at 300 mg/kg, per oral (p.o.) and […], interperitoneal (i.p.) for observation of any acute toxic symptoms or autonomic effects during the subsequent 72 hours. If none were noted, pharmacological evaluation proceeded employing doses and concentrations for each test based on appropriate multiples of doses required by suitable reference compounds. If acute toxicity was observed initially, the minimal toxic dose was determined and pharmacological screening doses were reduced proportionately."}, "[11]": {"assay": "Anticholinergic properties (overall statement)", "settings": "in vivo"}, "mice [12]": {"system": "mice", "assay": "Peripheral anticholinergic: lacrimation and salivation in mice", "format": "in vivo", "settings": "Mus musculus, ip, mice; reference compounds; read-out: ED-100, peripheral anticholinergic"}, "mice [13]": {"system": "mice", "assay": "Central anticholinergic: oxotremorine tremors in mice", "settings": "Mus musculus, ip, 1 h, read-out: ED-100, central anticholinergic"}, "glucose-loaded mice": {"system": "glucose-loaded mice", "assay": "Hypoglycemic, glucose-loaded mice", "format": "in vivo, mouse", "settings": "for ED100: Mus musculus, po, 1 h, p.o., glucose-loaded mice, reference compounds, read-out: ED-100, hypoglycemic, mice; for H = Hypoglycemic: percent decrease in serum glucose concentration: glucose loaded mice, 100 mg/kg oral dose, significance >20", "method": "Reduction in blood glucose concentration by more than 20% (>20) in fasted, glucose-loaded (1 gm/kg) mice one hour after dosing, p.o., indicates activity (test compound administered at same time as glucose load).\n^5 H = Hypoglycemic. Percent decrease in serum glucose concentration\nin glucose loaded mice hr. following a 100 mg/kg oral dose."}, "starch loaded mice": {"system": "starch loaded mice", "assay": "Carbohydrate (CHO) efficiency/hypoglycemic, starch loaded mice", "format": "in vivo, mouse", "settings": "Mus musculus, 1 h, oral, reference compounds, read-out: ED-100, CHO efficiency/hypoglycemic"}, "[14]": {"system": "hypercholesterolemic mice", "assay": "HP-betalipoprotein: serum heparin precipitating lipoprotein (HPL)", "format": "in vivo, mouse", "settings": "Mus musculus, po; hypercholesterolemic mice; reference compounds; read-out: ED-100, HP-betalipoprotein", "description": "Reduction of serum heparin precipitating lipoprotein (HPL) concentrations (corresponding to low density lipoprotein and very low density lipoprotein fractions) in the same hypercholesterolemic mice from Test 6 above by more than 20% (>20) from control animals indicates activity."}},
  "data": [
    {"smiles": "CNC1(C)C2CCC(C2)C1(C)C", "note": "(stereo not drawn) [mecamylamine, reference compound]", "values": [
      {"measurement": "Reference dose, pupil dilation", "setting": "mice [1]; reference compounds and the doses thereof", "value": 2.5, "unit": "mg/kg"},
      {"measurement": "ED100", "setting": "[2]; po, SHR, reference compounds, read-out: ED-100, antihypertensive", "value": 10, "unit": "mg/kg"}
    ]},
    {"smiles": "CSc1ccc(N2CC(CN3C(C)(C)CCCC3(C)C)=CC2=O)cc1", "note": "[Compound 8]", "values": [
      {"measurement": "Profile (comparison with another compound)", "setting": "[3]", "value": "generally similar to that of Compound 6"},
      {"measurement": "inhibition in vivo at 5 mg/kg", "setting": "rats [4]", "value": 18, "unit": "%"},
      {"measurement": "A = Antiarrythmic: mouse hearts fibrillating (of 3)", "setting": "mice [5]", "value": 3},
      {"measurement": "inhibition in vivo at 100 mg/kg", "setting": "[2]", "value": 25, "unit": "%"},
      {"measurement": "inhibition in vivo at 200 mg/kg", "setting": "[6]", "value": 0, "unit": "%"},
      {"measurement": "inhibition in vivo at 50 mg/kg", "setting": "rats [7]", "value": 50, "unit": "%"}
    ]},
    {"smiles": "COc1ccc2c(c1)c(CC(=O)O)c(C)n2C(=O)c1ccc(Cl)cc1", "note": "[indomethacin]", "values": [
      {"measurement": "ED100", "setting": "rats [8]", "value": 4, "unit": "mg/kg"}
    ]},
    {"smiles": "CC1(C)CCCC(C)(C)N1CC1=CC(=O)N(c2cccc(C#N)c2)C1", "note": "[Compound 15]", "values": [
      {"measurement": "CNS depression / CNS effects", "setting": "[9]", "value": "absence of CNS depression"},
      {"measurement": "inhibition in vivo at 5 mg/kg", "setting": "rats [4]", "value": 0, "unit": "%"},
      {"measurement": "Acute toxicity / toxic effects", "setting": "mice [10]", "value": "absence"},
      {"measurement": "A = Antiarrythmic: mouse hearts fibrillating (of 3)", "setting": "mice [5]", "value": 3},
      {"measurement": "Anticholinergic properties/effects", "setting": "[11]", "value": "absence"},
      {"measurement": "inhibition in vivo at 100 mg/kg", "setting": "[2]", "value": 19, "unit": "%"},
      {"measurement": "inhibition in vivo at 200 mg/kg", "setting": "[6]", "value": 15, "unit": "%"},
      {"measurement": "inhibition in vivo at 50 mg/kg", "setting": "rats [7]", "value": 88, "unit": "%"},
      {"measurement": "Antiulcer effect, in words", "setting": "rats [7]; rat, in vivo", "value": "unusual and strong activity"}
    ]},
    {"smiles": "CN(C)CCC=C1c2ccccc2CCc2ccccc21", "note": "[amitriptyline]", "values": [
      {"measurement": "ED100", "setting": "mice [12]", "value": 25, "unit": "mg/kg"},
      {"measurement": "ED100", "setting": "mice [13]", "value": 10, "unit": "mg/kg"}
    ]},
    {"smiles": "[H]/N=C(/N)N/C(=N/[H])NCCc1ccccc1", "note": "[phenformin, reference compound]", "values": [
      {"measurement": "ED100", "setting": "glucose-loaded mice", "value": 100, "unit": "mg/kg"},
      {"measurement": "ED100", "setting": "starch loaded mice", "value": 100, "unit": "mg/kg"}
    ]},
    {"smiles": "CC/C(=C(/CC)c1ccc(O)cc1)c1ccc(O)cc1", "note": "[diethylstilbestrol, reference compound]", "values": [
      {"measurement": "ED100", "setting": "[14]", "value": 200, "unit": "mg/kg"},
      {"measurement": "ED100", "setting": "[6]", "value": 200, "unit": "mg/kg"}
    ]},
    {"smiles": "CCCCNC(=O)NS(=O)(=O)c1ccc(C)cc1", "note": "[tolbutamide, reference compound]", "values": [
      {"measurement": "ED100", "setting": "glucose-loaded mice", "value": 50, "unit": "mg/kg"},
      {"measurement": "ED100", "setting": "starch loaded mice", "value": 50, "unit": "mg/kg"}
    ]},
    {"smiles": "CN1CCN(C2=Nc3cc(Cl)ccc3Nc3ccccc32)CC1", "note": "[clozapine]", "values": [
      {"measurement": "ED100", "setting": "mice [12]", "value": 10, "unit": "mg/kg"},
      {"measurement": "ED100", "setting": "mice [13]", "value": 10, "unit": "mg/kg"}
    ]},
    {"smiles": "CC1(C)CCCC(C)(C)N1CC1=CC(=O)N(c2ccccc2Cl)C1", "note": "[Compound 9]", "values": [
      {"measurement": "H = Hypoglycemic: percent decrease in serum glucose concentration", "setting": "glucose-loaded mice", "value": 27, "unit": "%"},
      {"measurement": "inhibition in vivo at 5 mg/kg", "setting": "rats [4]", "value": 18, "unit": "%"},
      {"measurement": "Ganglionic blockade as cause of pupillary dilation", "setting": "mice [1]; 25 mg/kg", "value": "does not appear to reflect ganglionic blockade"},
      {"measurement": "Pupil dilation", "setting": "mice [1]; 25 mg/kg", "value": "Pupillary dilation was again noted"},
      {"measurement": "A = Antiarrythmic: mouse hearts fibrillating (of 3)", "setting": "mice [5]", "value": 0},
      {"measurement": "Anticholinergic properties/effects", "setting": "[11]", "value": "not likely anticholinergic in nature"},
      {"measurement": "inhibition in vivo at 100 mg/kg", "setting": "[2]", "value": 31, "unit": "%"},
      {"measurement": "inhibition in vivo at 200 mg/kg", "setting": "[6]", "value": 0, "unit": "%"},
      {"measurement": "inhibition in vivo at 50 mg/kg", "setting": "rats [7]", "value": 100, "unit": "%"}
    ]},
    {"smiles": "CC1(C)CCCC(C)(C)N1CC1=CC(=O)N(c2ccc(C(F)(F)F)cc2)C1", "note": "[Compound 7]", "values": [
      {"measurement": "H = Hypoglycemic: percent decrease in serum glucose concentration", "setting": "glucose-loaded mice", "value": 22, "unit": "%"},
      {"measurement": "Profile (comparison with another compound)", "setting": "[3]", "value": "generally similar to that of Compound 6"},
      {"measurement": "inhibition in vivo at 5 mg/kg", "setting": "rats [4]", "value": 12, "unit": "%"},
      {"measurement": "A = Antiarrythmic: mouse hearts fibrillating (of 3)", "setting": "mice [5]", "value": 3},
      {"measurement": "inhibition in vivo at 100 mg/kg", "setting": "[2]", "value": 16, "unit": "%"},
      {"measurement": "inhibition in vivo at 200 mg/kg", "setting": "[6]", "value": 0, "unit": "%"},
      {"measurement": "inhibition in vivo at 50 mg/kg", "setting": "rats [7]", "value": 38, "unit": "%"}
    ]},
    {"smiles": "N[C@H](Cc1cc(I)c(Oc2cc(I)c(O)c(I)c2)c(I)c1)C(=O)O", "note": "[D-thyroxine, reference compound]", "values": [
      {"measurement": "ED100", "setting": "[14]", "value": 10, "unit": "mg/kg"},
      {"measurement": "ED100", "setting": "[6]", "value": 10, "unit": "mg/kg"}
    ]},
    {"smiles": "OC(CCN1CCCCC1)(c1ccccc1)C1CCCCC1", "note": "(stereo not drawn) [trihexyphenidyl]", "values": [
      {"measurement": "ED100", "setting": "mice [12]", "value": 2.5, "unit": "mg/kg"},
      {"measurement": "ED100", "setting": "mice [13]", "value": 10, "unit": "mg/kg"}
    ]}
  ]
}
